Tests used:
mouse tail = assay: Mouse tail-snip assay (bleeding time); assay type: in vivo; details: amputated tail submerged in 1.5 ml of test formulation; compared with water
Method: A formulation of the invention was tested for the ability to prevent bleeding using a mouse tail-snip assay. A portion of tail one centimeter in length was amputated from an anesthetized mouse, and the remaining portion of the tail was immediately submerged in 1.5 ml of test formulation. Bleeding time was recorded as time from amputation to complete cessation of bleeding. The following formulations were tested: water; a solution of 5% tranexamic acid (TXA) in water; a gelled formulation containing Poloxamer 407 (TDP); and a gelled formulation containing 5% tranexamic acid and TDP. Each formulation was tested on seven animals total over the course of three experiments.
FIG. 8 is a graph showing bleeding time of mouse tails exposed to various formulations in a mouse tail-snip assay. *P<0.05, **P<0.01, ***P<0.001, ****P<0.0001, based on one-way ANOVA with the Tukey post-test.

[1] = Drug release from solidified Poloxamer 407 thermogel; assay type: physicochemical; details: within 3 hours
Text: The properties of thermogels based on Poloxamer 407 were investigated. Poloxamer 407 has a molecular weight of 12,000 Da and a PEO/PPO ratio of 2:1 by weight, and it is Generally Recognized As Safe (GRAS) by the FDA.

SMILES	bleeding time (mouse tail)	drug being delivered [1] [%]
NC[C@H]1CC[C@H](C(=O)O)CC1 [TXA, tranexamic acid]	decrease bleeding time	
CCN(CC)CC(=O)Nc1c(C)cccc1C [lidocaine]		~60

From US20230181624A1, “COMPOSITIONS AND METHODS FOR TREATMENT OF GASTROINTESTINAL BLEEDING” (Intact Therapeutics, Inc., priority 2020, published 2023)
